This data set deals with corn planthopper (Peregrinus maidis). Briefly: Test F: control of corn planthopper through contact and/or systemic means on corn (maize) plant. Format: in vivo. Particulars: sprayed at 250 ppm, nymphs, 6 days, visually assessed. The method, then:
Test compounds were formulated using a solution containing 10% acetone, 90% water and 300 ppm X-77™ Spreader Lo-Foam Formula non-ionic surfactant containing alkylarylpolyoxyethylene, free fatty acids, glycols and isopropanol (Loveland Industries, Inc.). The formulated compounds were applied in 1 mL of liquid through a SUJ2 atomizer nozzle with ⅛ JJ custom body (Spraying Systems Co.) positioned 1.27 cm (0.5 inches) above the top of each test unit. All experimental compounds in this screen were sprayed at 250 ppm, replicated three times. After spraying of the formulated test compound, each test unit was allowed to dry for 1 hour and then a black, screened cap was placed on top. The test units were held for 6 days in a growth chamber at 19-21° C. and 50-70% relative humidity. Each test unit was then visually assessed for insect mortality.
For evaluating control of corn planthopper (Peregrinus maidis) through contact and/or systemic means, the test unit consisted of a small open container with a 3-4 day old corn (maize) plant (spike) inside. White sand was added to the top of the soil prior to application. Test compounds were formulated and sprayed at 250 ppm and replicated three times as described for Test C. […] Each test unit was then visually assessed for insect mortality.

Take `Cc1cc(C#N)cc(C(N)=O)c1NC(=O)c1cc(Br)nn1-c1ccccc1Cl` [Compound 67]: the mortality entry is listed as “at least 80%”.

The record behind these values is patent US20070184018A1, “Anthranilamide insecticides” (priority 2004, published 2007).
